Drawing on patent publication US10028961B2, “Therapeutically active compounds and their methods of use” (AGIOS PHARMACEUTICALS, INC., priority 2013, dated 2018), this text covers IC50 for nine molecules.

Experiment [1] addresses IDH1-R132H homodimer enzyme (Homo sapiens (Human), UniProt O75874, R132H). The experiment can be described thus: In vitro assay IDH1-R132H homodimer, NADPH depletion assay with NADPH/NADP preincubation. In kind it is biochemical. Particulars: 5 μM NADPH and 37.5 μM NADP. The procedure, abridged: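 Compounds were added from DMSO at 50× final concentration, and the mutant enzyme was incubated 60 min at room temperature after starting with a substrate mix holding NADPH and 5 mM alpha-ketoglutarate. Residual cofactor, read by fluorescence after excess diaphorase and resazurin, reflects enzyme turnover.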

Experiment [2] has as its system Neurosphere cells (TS603). The experiment can be described thus: Cellular assay for IDH1m R132H inhibitors, 2-HG by LC-MS in neurosphere cells (TS603). In kind it is cell-based. Particulars: 2-HG in media at 48 hours. The procedure, abridged:
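TS603 neurosphere cells in NeuroCult medium were dosed with compound (0.25% DMSO final) at 37 C, 5% CO2. After 48 hours, medium 2-HG was measured by LC-MS. At 72 hours, viability was read by CellTiter-Glo luminescence.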

The target of experiment [3] is IDH1 wt/IDH1 R132H heterodimer (Homo sapiens (Human), UniProt O75874, R132H). The experiment can be described thus: In vitro assay for IDH1m R132H inhibitors, IDH1 wt/IDH1 R132H heterodimer, NADPH depletion (diaphorase/resazurin). In kind it is biochemical. The procedure, abridged: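 Read-out is NADPH left after α-KG reduction to 2-HG, measured via resorufin fluorescence after 5 min diaphorase/resazurin step at 25° C. Enzyme is sf9-expressed IDH1wt-his/IDH1R132H-flag heterodimer, pre-incubated 1 hr at room temperature with compound and cofactor. IC50s from DMSO stocks diluted 1:50.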
Sequence of IDH1 wt/IDH1 R132H heterodimer (O75874 whole entry R132H): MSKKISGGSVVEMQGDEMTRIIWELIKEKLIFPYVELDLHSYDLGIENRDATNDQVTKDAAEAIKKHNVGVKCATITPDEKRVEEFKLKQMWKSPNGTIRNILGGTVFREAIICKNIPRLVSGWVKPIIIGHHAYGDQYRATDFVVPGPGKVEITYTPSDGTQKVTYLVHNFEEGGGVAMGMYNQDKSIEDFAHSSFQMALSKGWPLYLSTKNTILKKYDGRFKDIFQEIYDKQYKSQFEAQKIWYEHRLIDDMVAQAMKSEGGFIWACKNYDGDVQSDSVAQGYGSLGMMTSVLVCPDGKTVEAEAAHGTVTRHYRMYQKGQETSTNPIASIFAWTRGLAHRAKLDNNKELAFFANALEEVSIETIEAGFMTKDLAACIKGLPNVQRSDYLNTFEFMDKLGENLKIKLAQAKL
Sequence of IDH1 wt/IDH1 R132H heterodimer (O75874 whole entry, stated change not applied): as the sequence (O75874 whole entry R132H) above, with H132R counted along it

For experiment [4], the target named is IDH2 R140Q (Homo sapiens (Human), UniProt P48735, R140Q). Nature of the experiment: In vitro assay for IDH2m R140Q inhibitors, cofactor depletion assay. In kind it is biochemical. Particulars: IDH2 R140Q enzyme. In outline:
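Remaining cofactor measured fluorimetrically: diaphorase/resazurin Stop Mix […], halting the reaction. Before that, mutant enzyme and compound sat 1 h at RT, then substrate mix (4 μM NADPH, 1.6 mM α-KG) was added for 16 h at RT.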

The subject of experiment [5] is U87MG pLVX-IDH2 R140Q-neo cells. Nature of the experiment: U87MG pLVX-IDH2 R140Q-neo cell based assay, 2-HG by LC-MS. Conditions: Homo sapiens, U-87 MG.
In experiment [6] the target is IDH1-R132C homodimer enzyme (Homo sapiens (Human), UniProt O75874, R132C). The experiment can be described thus: In vitro assay IDH1-R132C homodimer, NADPH depletion assay with NADPH/NADP preincubation. In kind it is biochemical. Particulars: 5 uM NADPH and 28.75 uM NADP, read-out: IDH R132C NADPH/NADP IC50. Here is the method: The following describes the experimental procedures that can be used to obtain data on columns 3 and 5 of Table 5.
Sequence of IDH1-R132C homodimer enzyme (O75874 whole entry R132C): as the sequence (O75874 whole entry R132H) above, with H132C counted along it
A test compound is prepared as 10 mM stock in DMSO and diluted to 50× final concentration in DMSO, for a 50 μl reaction mixture. IDH enzyme activity converting alpha-ketoglutarate to 2-hydroxyglutaric acid is measured using a NADPH depletion assay. In the assay the remaining cofactor is measured at the end of the reaction with the addition of a catalytic excess of diaphorase and resazurin, to generate a fluorescent signal in proportion to the amount of NADPH remaining. […] The reaction is started with the addition of 10 μl of Substrate Mix ([…], 5 mM alpha-ketoglutarate, in Assay Buffer) and the mixture is incubated for 60 minutes at room temperature.
The concentration of alpha-ketoglutarate in the Substrate Buffer is 1 mM.

The mark [7] stands for this setting: IDH1 wt/R132H heterodimer, NADPH/NADP, not saturated, read-out: IDH1 wt/R132H NADPH/NADP IC50 not saturated.
[8] abbreviates: IDH1 wt/IDH1 R132H heterodimer, 300 μM NADP (saturated), read-out: IDH1 wt/R132H NADPH/NADP IC50 saturated.

Like-named read-outs stand apart in the source and are kept apart here. Bounds are passed on as bounds.

Sequence of IDH2 R140Q (P48735 40-452 R140Q): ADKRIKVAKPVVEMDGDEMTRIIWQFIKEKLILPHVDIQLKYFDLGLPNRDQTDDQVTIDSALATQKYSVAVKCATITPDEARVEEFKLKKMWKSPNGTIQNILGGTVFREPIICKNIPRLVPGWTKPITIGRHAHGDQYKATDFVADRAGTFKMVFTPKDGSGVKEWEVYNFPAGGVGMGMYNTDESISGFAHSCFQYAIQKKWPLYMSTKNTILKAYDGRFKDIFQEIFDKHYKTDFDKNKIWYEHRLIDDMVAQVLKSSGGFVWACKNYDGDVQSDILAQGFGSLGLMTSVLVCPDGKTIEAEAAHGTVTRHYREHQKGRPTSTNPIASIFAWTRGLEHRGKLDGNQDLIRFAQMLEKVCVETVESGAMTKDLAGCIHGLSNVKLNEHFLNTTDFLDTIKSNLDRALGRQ
Sequence of IDH1-R132H homodimer enzyme (O75874 whole entry R132H): as the sequence (O75874 whole entry R132H) above

As to `N#CC1(c2cc(Nc3nc(N[C@H]4CCC(F)(F)C4)nc(-c4cccc(C(F)(F)F)n4)n3)ccn2)CC1` [Compound 133], the IC50 was 50 to 100 nM in experiment [1]; less than 50 nM in experiment [2]; less than 50 nM in experiment [3] (setting [7]); less than 50 nM in experiment [4]; less than 50 nM in experiment [5]; 100 to 1000 nM in experiment [6].

`N#CC1(c2cc(Nc3nc(N[C@@H]4CCC(F)(F)C4)nc(-c4cccc(C(F)(F)F)n4)n3)ccn2)CC1` [Compound 137]: the IC50 is less than 50 nM in experiment [1]; less than 50 nM in experiment [2]; less than 50 nM in experiment [3] (setting [7]); less than 50 nM in experiment [4]; less than 50 nM in experiment [5]; 100 to 1000 nM in experiment [6].

Consider `FC1(F)CC[C@H](Nc2nc(Nc3ccnc(C(F)(F)F)c3)nc(-c3cccc(C(F)(F)F)n3)n2)C1` [Compound 158], for which the IC50 was 50 to 100 nM in experiment [1]; less than 50 nM in experiment [2]; less than 50 nM in experiment [3] (setting [7]); less than 50 nM in experiment [4]; less than 50 nM in experiment [5]; 100 to 1000 nM in experiment [6].

Turning to `N#CC1(c2cc(Nc3nc(N[C@H]4CCC(F)(F)C4)nc(-n4ccc(C(F)(F)F)n4)n3)ccn2)CC1` [Compound 174], the IC50 in experiment [1] was less than 50 nM; in experiment [2], less than 50 nM; in experiment [3] (setting [7]), less than 50 nM; in experiment [4], less than 50 nM; in experiment [5], less than 50 nM; in experiment [6], 50 to 100 nM.

On to `FC1(F)CC(Nc2nc(Nc3ccnc(C(F)(F)F)c3)nc(-c3cccc(C(F)(F)F)n3)n2)C1` [Compound 190], for which the IC50 is 100 to 1000 nM in experiment [1]; less than 50 nM in experiment [2]; less than 50 nM in experiment [3] (setting [7]); less than 50 nM in experiment [4]; less than 50 nM in experiment [5]; more than 1000 nM in experiment [6].

Take `N#CC1(c2cc(Nc3nc(N[C@@H]4CCC(F)(F)C4)nc(-n4ccc(C(F)(F)F)n4)n3)ccn2)CC1` [Compound 350]: the IC50 in experiment [1] was less than 50 nM; in experiment [2], less than 50 nM; in experiment [3] (setting [8]), less than 50 nM; in experiment [4], less than 50 nM; in experiment [5] it was less than 50 nM; in experiment [6], 50 to 100 nM.

Take `FC1(F)CC[C@H](Nc2nc(Nc3ccnc(C(F)(F)F)c3)nc(-n3ccc(C(F)(F)F)n3)n2)C1` [Compound 393]: the IC50 in experiment [1] is 50 to 100 nM; in experiment [2] it was less than 50 nM; in experiment [3] (setting [8]), less than 50 nM; in experiment [4], less than 50 nM; in experiment [5], less than 50 nM; in experiment [6], 100 to 1000 nM.

For `C[C@@H](Nc1nc(Nc2ccnc(C(F)(F)F)c2)nc(-n2ccc(C(F)(F)F)n2)n1)C(F)(F)F` [Compound 400], the IC50 in experiment [1] is 100 to 1000 nM; in experiment [2], less than 50 nM; in experiment [3] (setting [8]), less than 50 nM; in experiment [4], less than 50 nM; in experiment [5] it was less than 50 nM; in experiment [6], 100 to 1000 nM.

Take `FC1(F)CC[C@@H](Nc2nc(N[C@@H]3CCC(F)(F)C3)nc(-c3cncc(C(F)(F)F)n3)n2)C1` [Compound 410]: the IC50 in experiment [1], in experiment [2], in experiment [3] (setting [8]), in experiment [4], in experiment [5] and in experiment [6] was less than 50 nM throughout.
